Test [1] has as its system PC-3. Nature of the test: Cytotoxicity against human PC3 cells assessed as reduction in cell viability. The class given is functional, cell-based.
Test [2] relates to HL-60. The test is described as follows: Cytotoxicity against human HL60 cells assessed as reduction in cell viability. The class given is functional, cell-based.
Test [3] concerns K562. The test is described as follows: Cell cycle arrest in human K562 cells assessed as accumulation at G0 phase. The class given is functional, cell-based.
The test system of test [4] is K562. Nature of the test: Cell cycle arrest in human K562 cells assessed as accumulation at G1 phase. The class given is functional, cell-based.
The test system of test [5] is K562. The test is described as follows: Induction of apoptosis in human K562 cells. The class given is functional, cell-based.
The test system of test [6] is HCT-116. The test is described as follows: Cytotoxicity against human HCT116 cells assessed as reduction in cell viability after 72 hrs by MTT assay. The class given is functional, cell-based. Particulars: HCT-116, 72 h. For orientation: Tetrazolium assays rely on reduction of a dye to a coloured formazan, in cell work by metabolically active cells.
In test [7] the test system is CNE. Nature of the test: Cytotoxicity against human CNE1 cells assessed as reduction in cell viability after 48 hrs. The class given is functional, cell-based.
Test [8] has as its system CNE-2. Nature of the test: Cytotoxicity against human CNE2 cells assessed as reduction in cell viability after 48 hrs. The class given is functional, cell-based. Particulars: CNE-2, 48 h.
In test [9] the test system is HGC-27. Nature of the test: Cytotoxicity against human HGC27 cells assessed as reduction in cell viability after 24 hrs by MTT assay. Particulars: HGC-27, 24 h. The class given is functional, cell-based.
In test [10] the test system is MGC-803. The test is described as follows: Cytotoxicity against human MGC803 cells assessed as reduction in cell viability after 24 hrs by MTT assay. The class given is functional, cell-based. The settings on record: MGC-803, 24 h.
The test system of test [11] is SGC-7901. Nature of the test: Cytotoxicity against human SGC7901 cells assessed as reduction in cell viability after 24 hrs by MTT assay. The settings on record: SGC-7901, 24 h. The class given is functional, cell-based.
Test [12] has as its target RAF proto-oncogene serine/threonine-protein kinase (Homo sapiens) (UniProt P04049). Nature of the test: Inhibition of c-RAF (unknown origin) phosphorylation relative to control. Particulars: concentration not given here.
Test [13] is filed under the species Homo sapiens. Nature of the test: Inhibition of ERK (unknown origin) phosphorylation relative to control. The settings on record: concentration not given here.
For test [14], the target named is Dual specificity mitogen-activated protein kinase kinase; MEK1/2 (Homo sapiens) (UniProt P36507+Q02750). Nature of the test: Inhibition of MEK (unknown origin) phosphorylation relative to control. The settings on record: concentration not given here. The class given is protein assay.
Sequence of Dual specificity mitogen-activated protein kinase kinase; MEK1/2 (Homo sapiens) (P36507 whole entry, looked up): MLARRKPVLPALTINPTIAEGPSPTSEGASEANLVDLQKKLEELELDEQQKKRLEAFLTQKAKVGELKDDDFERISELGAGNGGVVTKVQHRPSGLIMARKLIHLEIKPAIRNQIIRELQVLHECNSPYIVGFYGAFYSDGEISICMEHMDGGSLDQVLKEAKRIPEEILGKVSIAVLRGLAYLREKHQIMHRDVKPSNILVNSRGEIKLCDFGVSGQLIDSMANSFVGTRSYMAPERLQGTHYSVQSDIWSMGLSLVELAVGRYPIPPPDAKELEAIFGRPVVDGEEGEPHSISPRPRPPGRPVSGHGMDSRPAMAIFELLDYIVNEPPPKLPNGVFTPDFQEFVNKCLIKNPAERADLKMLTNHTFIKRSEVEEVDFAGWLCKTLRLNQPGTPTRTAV
Sequence of Dual specificity mitogen-activated protein kinase kinase; MEK1/2 (Homo sapiens) (Q02750 whole entry, looked up): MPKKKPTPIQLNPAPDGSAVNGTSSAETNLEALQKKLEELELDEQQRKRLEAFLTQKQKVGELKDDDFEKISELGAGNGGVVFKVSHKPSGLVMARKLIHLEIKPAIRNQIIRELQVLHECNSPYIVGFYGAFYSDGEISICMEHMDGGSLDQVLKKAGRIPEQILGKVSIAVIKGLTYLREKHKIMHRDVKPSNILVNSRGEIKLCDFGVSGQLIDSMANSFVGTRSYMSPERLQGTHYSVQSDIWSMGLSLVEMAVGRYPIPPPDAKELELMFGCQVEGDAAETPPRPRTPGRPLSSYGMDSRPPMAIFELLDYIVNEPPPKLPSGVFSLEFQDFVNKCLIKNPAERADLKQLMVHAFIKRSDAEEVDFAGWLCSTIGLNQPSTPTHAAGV
In test [15] the test system is MG-63. The test is described as follows: Cytotoxicity against human MG63 cells assessed as reduction in cell viability after 48 hrs. The class given is functional, cell-based. Particulars: MG-63, 48 h.
For test [16], the system named is U2OS. The test is described as follows: Cytotoxicity against human U2OS cells assessed as reduction in cell viability after 48 hrs. The class given is functional, cell-based.
Test [17] relates to MCF7. Nature of the test: Cytotoxicity against human MCF7 cells assessed as reduction in cell viability. The class given is functional, cell-based.
The test system of test [18] is HeLa. The test is described as follows: Cytotoxicity against human HeLa cells assessed as reduction in cell viability. The class given is functional, cell-based.
Test [19] has as its system HeLa. Nature of the test: Cytotoxicity against human HeLa cells assessed as reduction in cell viability after 72 hrs by MTT assay. The class given is functional, cell-based.
Test [20] deals with Ca-Ski. The test is described as follows: Cytotoxicity against human CaSki cells assessed as reduction in cell viability after 72 hrs. The class given is functional, cell-based.
In test [21] the test system is SiHa. Nature of the test: Cytotoxicity against human SiHa cells assessed as reduction in cell viability after 72 hrs. The class given is functional, cell-based.
In test [22] the test system is SiHa. Nature of the test: Cytotoxicity against human SiHa cells assessed as reduction in cell viability after 72 hrs by MTT assay. The class given is functional, cell-based.
For test [23], the system named is L02. Nature of the test: Cytotoxicity against human LO2 cells assessed as reduction in cell viability after 48 hrs by MTT assay. The class given is functional, cell-based. The settings on record: L02, 48 h.
The test system of test [24] is HeLa. The test is described as follows: Cytotoxicity against human HeLa cells assessed as reduction in cell viability after 72 hrs. The class given is functional, cell-based.
Test [25] concerns C-33-A. Nature of the test: Cytotoxicity against human C33A cells assessed as reduction in cell viability after 72 hrs. The class given is functional, cell-based.
Test [26] has as its system PC-12. Nature of the test: Cytotoxicity against rat PC12 cells assessed as reduction in cell viability after 48 hrs by MTT assay. The class given is functional, cell-based. Particulars: PC-12, 48 h.
Test [27] relates to HK-2. Nature of the test: Cytotoxicity against human HK2 cells assessed as reduction in cell viability after 24 to 48 hrs by MTT assay. The class given is cell-based.
Test [28] concerns NCI-H28. Nature of the test: Cytotoxicity against human NCI-H28 cells assessed as reduction in cell viability after 24 to 48 hrs by MTS assay. The class given is functional, cell-based.
Test [29] concerns SiHa. The test is described as follows: Cytotoxicity against human SiHa cells assessed as reduction in cell viability after 24 hrs by MTT assay. The class given is functional, cell-based.
For test [30], the system named is HeLa. Nature of the test: Cytotoxicity against human HeLa cells assessed as reduction in cell viability after 24 hrs by MTT assay. The class given is functional, cell-based.
In test [31] the test system is WI-38. The test is described as follows: Cytotoxicity against human WI38 cells assessed as reduction in cell viability after 24 to 48 hrs by MTT assay. The class given is cell-based.
In test [32] the test system is MSTO-211H. The test is described as follows: Cytotoxicity against human MSTO-211H cells assessed as reduction in cell viability after 24 to 48 hrs by MTS assay. The class given is functional, cell-based.
For test [33], the system named is MDA-MB-231. The test is described as follows: Cytotoxicity against human MDA-MB-231 cells assessed as reduction in cell viability after 24 to 48 hrs by MTS assay. The class given is functional, cell-based.
In test [34] the test system is MCF7. The test is described as follows: Cytotoxicity against human MCF7 cells assessed as reduction in cell viability after 24 to 48 hrs by MTS assay. The class given is functional, cell-based.
Test [35] has as its system HepG2. Nature of the test: Growth inhibition of human HepG2 cells. The class given is functional, cell-based.
The test system of test [36] is PC-3. Nature of the test: Cytotoxicity against human PC3 cells assessed as reduction in cell viability relative to control. The class given is functional.
Test [37] has as its system DU-145. The test is described as follows: Cytotoxicity against human DU145 cells assessed as reduction in cell viability relative to control. The class given is functional.
In test [38] the test system is LNCaP C4-2. Nature of the test: Cytotoxicity against human C4-2 cells assessed as reduction in cell viability relative to control. The class given is functional.
For test [39], the system named is LNCaP. The test is described as follows: Cytotoxicity against human LNCAP cells assessed as reduction in cell viability relative to control. The class given is functional.
The test system of test [40] is MCF7. The test is described as follows: Cytotoxicity against human MCF7 cells assessed as reduction in cell viability at 0.01 uM after 48 hrs by fluorescence assay relative to control. The class given is functional.
For test [41], the system named is MCF7. The test is described as follows: Cytotoxicity against human MCF7 cells assessed as reduction in cell viability at 5 uM after 48 hrs by fluorescence assay relative to control. The class given is functional.

The structures appear in SMILES notation. Bounds are passed on as bounds.

The values below come from ChEMBL document CHEMBL4402531, “Recent advances in α,β-unsaturated carbonyl compounds as mitochondrial toxins” (Eur J Med Chem, 2019).

As usually defined, the IC50 is the concentration that gives 50% inhibition. The term inhibition denotes the change of the read-out against control, counted positive when it falls. Lower therefore signals a response near the control.

Sequence of RAF proto-oncogene serine/threonine-protein kinase (Homo sapiens) (P04049 whole entry): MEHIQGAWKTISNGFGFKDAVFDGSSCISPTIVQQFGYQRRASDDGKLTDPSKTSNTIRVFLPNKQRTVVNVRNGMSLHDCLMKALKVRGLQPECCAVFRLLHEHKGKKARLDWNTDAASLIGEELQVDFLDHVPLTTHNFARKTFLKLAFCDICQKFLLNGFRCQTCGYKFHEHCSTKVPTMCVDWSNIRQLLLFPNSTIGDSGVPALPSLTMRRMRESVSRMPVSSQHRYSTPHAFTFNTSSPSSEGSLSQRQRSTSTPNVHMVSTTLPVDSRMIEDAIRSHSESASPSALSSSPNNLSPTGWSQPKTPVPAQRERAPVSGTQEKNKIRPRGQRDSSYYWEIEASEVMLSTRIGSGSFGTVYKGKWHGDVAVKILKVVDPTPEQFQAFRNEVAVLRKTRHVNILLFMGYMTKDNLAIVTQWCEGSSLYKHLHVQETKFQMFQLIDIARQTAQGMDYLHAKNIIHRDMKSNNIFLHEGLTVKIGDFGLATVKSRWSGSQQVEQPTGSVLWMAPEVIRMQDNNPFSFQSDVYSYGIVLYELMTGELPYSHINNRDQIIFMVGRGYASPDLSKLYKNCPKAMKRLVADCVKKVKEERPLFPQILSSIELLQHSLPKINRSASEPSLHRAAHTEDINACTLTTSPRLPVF

Consider `COc1ccc(C(=O)/C=C/c2ccccc2)c(O)c1`, for which the IC50 in test [1] was 8.08 to 13.8 µM.
As to `CCn1cc(C(=O)O)c(=O)c2c3c(ccc21)NC(=O)/C3=C1/C(=O)Nc2ccc(Cl)cc21`, the IC50 in test [2] worked out at 4.27 µM.
In the case of `COc1cc(/C=C/C(=O)C(=Cc2ccncc2)C(=O)/C=C/c2ccc(O)c(OC)c2)ccc1O`, the IC50 in test [3] was 0.6 µM; in [4], 0.4 to 3.2 µM; in test [5], 0.4 to 3.2 µM.
Turning to `CC(=O)Oc1ccc(C(=O)/C=C/c2ccccc2)c(O)c1`, the IC50 in test [1] lay in the range of 8.08 to 13.8 µM.
In the case of `COc1cccc(OC)c1C(=O)/C=C/c1c2ccccc2nc2ccccc12`, the IC50 in [6] amounted to 4.2 µM.
As for `CCOc1ccc(C(=O)/C=C/c2ccccc2)c(O)c1`, in test [1], the IC50 fell in the range of 8.08 to 13.8 µM.
On to `C=C1C(=O)[C@]23[C@H](O)[C@@H]1CC[C@H]2[C@]12CCCC(C)(C)[C@H]1[C@H](O)[C@@]3(O)OC2`, for which the IC50 in test [7] was 1.26 µM; in test [8], 1.52 µM.
Take `CCCOc1ccc(C(=O)/C=C/c2ccccc2)c(O)c1`: the IC50 in test [1] lay in the range of 8.08 to 13.8 µM.
In the case of `COc1ccc(Br)cc1C(=O)/C=C/c1ccc(S(C)(=O)=O)cc1`, the IC50 in test [9], in [10] and in [11] was 3.57 to 5.61 µM in each case.
With `O=C(/C=C/c1ccc(O)cc1)/C(C(=O)Nc1ccccc1)=C(O)/C=C/c1ccc(O)cc1`, the inhibition turned out to be 93% in [12], 87% in test [13] and 91% in test [14].
On to `O=C(/C=C/c1ccccc1)c1ccc(O)cc1O` [2',4'-DIHYDROXYCHALCONE], for which the IC50 in [1] was in the range of 8.08 to 13.8 µM.
Turning to `O=C(/C=C(\O)c1ccccc1)c1ccccc1O` [2',beta-DIHYDROXYCHALCONE], the IC50 worked out at 23.8 µM in [15] and 19.6 µM in [16].
Turning to `COc1cc(O)c(C(=O)/C=C/c2ccccc2)c2c1C=CC(C)(CCC=C(C)C)O2` (stereo not given) [BOESENBERGIN A], the IC50 in test [17] and in test [18] was 20 µM each time.
As to `O=C(/C=C/c1ccc(O)cc1)c1ccc(O)cc1O` [ISOLIQUIRITIGENIN], the IC50 is 58.1 µM in [19]; 39.1 µM in [20]; 53.8 µM in [21]; 53.8 µM in [22]; > 1000 µM in [23]; 58.1 µM in test [24]. In addition, the IC50 was 32.8 µM in test [25] and 17.8 µM in [26].
As to `C=CC(C)(C)c1cc(/C=C/C(=O)c2ccc(O)cc2)c(OC)cc1O` [LICOAGROCHACONE A], the IC50 in test [27] was 88.7 µM; in test [28], 30 µM; in test [29], 42.2 µM; in test [30] it was 48.5 µM; in [31] it was 90.2 µM; in test [32], 26 µM. Besides, the IC50 in [33] and in test [34] was 22 µM throughout.
Compound `CCCCC/C=C/C(=O)CCc1ccc(O)c(OC)c1` [SHOGAOL] returned a half-maximal inhibitory concentration (IC50) in test [35] of 88 µM.
`COc1cc(O)c(CC=C(C)C)c(O)c1C(=O)/C=C/c1ccc(O)cc1` [XANTHOHUMOL]: the Activity in [36] was 42%; in test [37], 38%; in test [38], 30%; in [39] it was 41%; in [40], 39.6%; in test [41], -57.3%.
